In patent US20180085340A1, “METHOD FOR TREATING MELANOMA” (TCI CO., LTD, priority 2016, published 2018):

Tested on: Homo sapiens skin malignant melanoma cells (A375.S2 cell line)
Assay: MTT assay of survival of malignant melanoma cells
Assay type: cell-based
Conditions: for Relative survival rate (%) / Average of absorbance values (n = 4): 48 hours; for Relative survival rate (%): relative to control group, n = 4; for Average of absorbance values (n = 4): OD at 570 nm, MTT
Protocol: Homo sapiens skin malignant melanoma cells (A375.S2 cell line) were cultivated for 24 hours, and then divided into four groups (5×10^3 cells for each group). The four groups were respectively cultivated in the following medium for 48 hours: • 1. Control group: a MEM-NEAA medium contains 1 mmol of sodium pyruvate and 10% of FBS. • 2. High-dose group: a MEM-NEAA medium contains 1 mmol of sodium pyruvate, 10% of FBS and 1 mg/ml of the compound of formula (I) obtained from Example 1. • 3. Middle-dose group: a MEM-NEAA medium contains 1 mmol of sodium pyruvate, 10% of FBS and 0.5 mg/ml of the compound of formula (I) obtained from Example 1. • 4. Low-dose group: a MEM-NEAA medium contains 1 mmol of sodium pyruvate, 10% of FBS and 0.25 mg/ml of the compound of formula (I) obtained from Example 1.
Thereafter, the absorbance value (optical density, OD) at 570 nm of each group was determined by the MTT assay.
Steps of the above cultivation and MTT assay were repeated four times. The absorbance values were averaged in each group, and the result of the control group was served as a basis for calculating the relative survival rate of other groups.

With `COc1cc([C@@H]2Oc3c(OC)cc(/C=C/C(=O)NCCc4ccc(O)cc4)cc3[C@@H]2C(=O)NCCc2ccc(O)cc2)ccc1O` [compound of formula (I), N-trans-grossaminde] the “Relative survival rate (%)” value (0.25 mg/ml compound in medium) was 93.67%, the “Relative survival rate (%)” value (0.5 mg/ml compound in medium) was 22.14% and the “Relative survival rate (%)” value (1 mg/ml compound in medium) was 12.24%. For the same compound, the “Average of absorbance values (n = 4)” value (0.25 mg/ml compound) was 0.733, the “Average of absorbance values (n = 4)” value (0.5 mg/ml compound) was 0.1732 and the “Average of absorbance values (n = 4)” value (1 mg/ml compound) was 0.09575. For the same compound, the “induction of apoptosis of malignant melanoma cells” value (conclusion drawn from MTT survival rates) was “effectively induce apoptosis”.
